Measurements: a melting point compilation (Tetko et al.; mined from patent text by program, amines drawn as free bases though some values may be those of a salt)

Compound | melting point [°C]
Cn1c(=O)n(CCC[C@@H](NS(=O)(=O)c2ccc(-c3ccccc3)cc2)C(=O)NO)c(=O)c2ccccc21 | 202 to 203
COc1cc(OC)c2c(=O)[nH]c(-c3cc(C)c(O)c(C)c3)nc2n1 | 297 to 299
CC(=O)N(C)C(c1ccc(F)cc1)c1ccc(F)cc1 | 99 to 100
CSC(NCCSCc1[nH]cnc1C)=C(C#N)C(N)=O | 137 to 139
CC(=O)OC1(c2ccccc2)C=CC(=O)C=C1 | 100 to 101
CCCn1nc(Cc2ccc(-c3ccccc3S(=O)(=O)NC(=O)c3ccccc3)cc2)c(C(=O)O)c1Cc1ccccc1 | 105 to 109
CC(C)CCCC(C)C1CCC2C3CC=C4CC(OCCCCCCSC5OC(CO)C(O)C(O)C5O)CCC4(C)C3CCC12C (centres undefined) | 110
CCOC(=O)CCCCn1c(=O)[nH]c2ccc(F)cc2c1=O | 131 to 132
CNC1C(O)CC2C3CCc4cc(OC(=O)C(C)(C)C)ccc4C3CCC21C (centres undefined) | 196 to 199
COc1ccc(OC)c2c1CCC(NC(C)=O)C2 (centres undefined) | 156 to 158
C=CC(=O)NCNC(=O)CCS(=O)(=O)Cl | 192
CCOC(=O)c1cnn(C)c1C(=O)Nc1ccn2nc(-c3ccnc(F)c3)nc2c1 | 220 to 230
CC(C)(C)c1cc(C(C)(C)C)n(Cc2ccc(CO)cc2)n1 | 121 to 122
CCOC(=O)C(=O)Nc1c([N+](=O)[O-])sc2c(F)cccc12 | 148 to 151
Cc1ccc(OCC(O)CNC(C)C)nc1 (centres undefined) | 62 to 67
CCOC(=O)c1cc(=O)c2ccc(C)cc2o1 | 62 to 64
Clc1ccc(Oc2cncc3sccc23)cc1 | 87 to 89
CN(CC(=O)OC(C)(C)C)C[C@@H]1CC(c2ccc(-c3ccc(N4C[C@H](Cn5ccnn5)OC4=O)cc3F)cn2)=NO1 | 180
CC(C)(Oc1ccc(Cl)cc1)C(=O)C(Oc1cccc(Cl)n1)n1cncn1 (centres undefined) | 100
Cc1nc2n(C)c(C)cn2c(=O)c1CCN1CCC(n2ccc3ccccc32)CC1 | 166
Cc1nn(-c2c(Cl)cc(C(F)(F)F)cc2Cl)cc1S(C)(=O)=O | 168 to 169
COc1cc(CC(=O)Nc2ccc(C3CN(C(=O)c4ccccc4)CC3C(=O)O)cc2)ccc1NC(=O)Nc1ccccc1C (centres undefined) | 248
Cc1nc(NC2CCCC2O)c2ncn(C3OC(CO)C(O)C3O)c2n1 (centres undefined) | 188 to 192
NS(=O)(=O)c1cccc(-c2cccc(-c3nc(-c4ccc(C(F)(F)F)nc4)cc(C(F)F)n3)c2)c1 | 222
O=C(O)C1Oc2ccccc2Cc2ccccc2O1 | 153 to 157

Compound | melting point [°C]
COc1cc(OC)c(C2=CCCCC2)c(OC)c1 | 127
CN1N=C2c3ccccc3CCC2C1c1ccncc1 (centres undefined) | 195 to 198
OCc1c2c(nn1-c1ccc(F)cc1)CCCCC2 | 177 to 178
Cc1oc(COc2ccccc2/C=C/CO)nc1-c1ccccc1 | 128 to 129
c1ccc(Oc2ccc(Nc3ncnc4cnc(N5CCCCC5)nc34)cc2)cc1 | 175
COc1cccc(CC(=O)O)c1OCCCc1cc(OC(C)C)nn1Cc1ccc(C(F)(F)F)cc1Cl | 98 to 99
CCc1nc(C)c(CC(=O)O)c(=O)n1Cc1ccc(-c2ccccc2-c2nnn[nH]2)cc1 | 325 to 329
CC(C)N(C(=O)CN1C(=O)C(C)(CC(=O)Nc2ccccc2)C(=O)N(c2ccccc2)c2ccccc21)c1ccccc1 (centres undefined) | 228 to 229
N#Cc1cc(-c2ccc(Cl)cc2Cl)c[nH]c1=O | > 260
CC(C)(C)OC(=O)NCc1[nH]c(=O)c2ccc(C#N)cc2c1-c1ccc(Cl)cc1 | 234 to 235
CCNC(=O)Nc1ccc(-c2cc3c(Nc4cccc(Cl)c4)ncnc3[nH]2)cc1 | > 290
CCOC(=O)N1CC[C@H](NC(=O)c2cc([N+](=O)[O-])c(Cl)cc2OC)[C@H](OC)C1 (relative stereo) | 181
CC(C)(C)OC(=O)[C@@H]1CS[C@H](c2cccnc2)N1C(=O)CNC(=O)Nc1cccc(C(=O)O)c1 | 147
CCOC(=O)/C(=N\OC1CCSC1)c1csc(N)n1 (centres undefined) | 151 to 152
CCN1CCCN(c2c(C)cccc2Cl)C1=S | 88 to 90
CCOc1ccc2c(c1)n(C1CCCCC1)c(=O)n2S(=O)(=O)c1ccc(C(=O)NC(C)(C)CC(C)(C)C)cc1OC | 180
CC(C)(C)OC(=O)N1CCN(Cc2ccccc2)C(=O)C1 | 89 to 90
Cc1ccc(O)c2c1CCC2=NO | 148 to 150
OC1CSC(Oc2cc(-c3cccnc3)ccc2Cl)C(O)C1O (centres undefined) | 172
CCCNC(=O)C(C#N)(CC)c1ccccc1 (centres undefined) | 55 to 56
Cc1ccc(S(=O)(=O)N2[C@@H](CC#N)CC[C@H]2c2ccc(F)cc2)cc1 (racemic) | 116
O=c1oc2ccccc2c(O)c1C(Sc1ccc(Cl)cc1)c1cc(F)ccc1F (centres undefined) | 146 to 147
COC(=O)Cc1cccc(OCc2nc(CCc3nc(-c4ccccc4)oc3C)no2)c1 | 76 to 77
C/C(=C/C(=O)N(C)O)c1ccn(-c2c(C)cccc2C)c1 | 158 to 160
